The values below come from patent publication US9340590B2 (priority 2011, dated 2016).

As a reminder, the IC50 is the concentration needed to halve the response being measured.

For assay [1], the target named is hNav1.5 (Homo sapiens, UniProt Q14524). Description: cell-based.
Assay [2] deals with hNav1.7 (Homo sapiens, UniProt Q15858). Description: cell-based. As to conditions: Nav1.7 Use IC50.

Positions of bridges follow the written chain, without caps; N, C: chain ends. Non-standard residues stand in square brackets, D forms with d. Residues, ends and D or L forms follow the SMILES beside them. Cit = NC(=O)NCCC[C@H](N)C(=O)O

Sequence of hNav1.7 (Q15858 whole entry, looked up): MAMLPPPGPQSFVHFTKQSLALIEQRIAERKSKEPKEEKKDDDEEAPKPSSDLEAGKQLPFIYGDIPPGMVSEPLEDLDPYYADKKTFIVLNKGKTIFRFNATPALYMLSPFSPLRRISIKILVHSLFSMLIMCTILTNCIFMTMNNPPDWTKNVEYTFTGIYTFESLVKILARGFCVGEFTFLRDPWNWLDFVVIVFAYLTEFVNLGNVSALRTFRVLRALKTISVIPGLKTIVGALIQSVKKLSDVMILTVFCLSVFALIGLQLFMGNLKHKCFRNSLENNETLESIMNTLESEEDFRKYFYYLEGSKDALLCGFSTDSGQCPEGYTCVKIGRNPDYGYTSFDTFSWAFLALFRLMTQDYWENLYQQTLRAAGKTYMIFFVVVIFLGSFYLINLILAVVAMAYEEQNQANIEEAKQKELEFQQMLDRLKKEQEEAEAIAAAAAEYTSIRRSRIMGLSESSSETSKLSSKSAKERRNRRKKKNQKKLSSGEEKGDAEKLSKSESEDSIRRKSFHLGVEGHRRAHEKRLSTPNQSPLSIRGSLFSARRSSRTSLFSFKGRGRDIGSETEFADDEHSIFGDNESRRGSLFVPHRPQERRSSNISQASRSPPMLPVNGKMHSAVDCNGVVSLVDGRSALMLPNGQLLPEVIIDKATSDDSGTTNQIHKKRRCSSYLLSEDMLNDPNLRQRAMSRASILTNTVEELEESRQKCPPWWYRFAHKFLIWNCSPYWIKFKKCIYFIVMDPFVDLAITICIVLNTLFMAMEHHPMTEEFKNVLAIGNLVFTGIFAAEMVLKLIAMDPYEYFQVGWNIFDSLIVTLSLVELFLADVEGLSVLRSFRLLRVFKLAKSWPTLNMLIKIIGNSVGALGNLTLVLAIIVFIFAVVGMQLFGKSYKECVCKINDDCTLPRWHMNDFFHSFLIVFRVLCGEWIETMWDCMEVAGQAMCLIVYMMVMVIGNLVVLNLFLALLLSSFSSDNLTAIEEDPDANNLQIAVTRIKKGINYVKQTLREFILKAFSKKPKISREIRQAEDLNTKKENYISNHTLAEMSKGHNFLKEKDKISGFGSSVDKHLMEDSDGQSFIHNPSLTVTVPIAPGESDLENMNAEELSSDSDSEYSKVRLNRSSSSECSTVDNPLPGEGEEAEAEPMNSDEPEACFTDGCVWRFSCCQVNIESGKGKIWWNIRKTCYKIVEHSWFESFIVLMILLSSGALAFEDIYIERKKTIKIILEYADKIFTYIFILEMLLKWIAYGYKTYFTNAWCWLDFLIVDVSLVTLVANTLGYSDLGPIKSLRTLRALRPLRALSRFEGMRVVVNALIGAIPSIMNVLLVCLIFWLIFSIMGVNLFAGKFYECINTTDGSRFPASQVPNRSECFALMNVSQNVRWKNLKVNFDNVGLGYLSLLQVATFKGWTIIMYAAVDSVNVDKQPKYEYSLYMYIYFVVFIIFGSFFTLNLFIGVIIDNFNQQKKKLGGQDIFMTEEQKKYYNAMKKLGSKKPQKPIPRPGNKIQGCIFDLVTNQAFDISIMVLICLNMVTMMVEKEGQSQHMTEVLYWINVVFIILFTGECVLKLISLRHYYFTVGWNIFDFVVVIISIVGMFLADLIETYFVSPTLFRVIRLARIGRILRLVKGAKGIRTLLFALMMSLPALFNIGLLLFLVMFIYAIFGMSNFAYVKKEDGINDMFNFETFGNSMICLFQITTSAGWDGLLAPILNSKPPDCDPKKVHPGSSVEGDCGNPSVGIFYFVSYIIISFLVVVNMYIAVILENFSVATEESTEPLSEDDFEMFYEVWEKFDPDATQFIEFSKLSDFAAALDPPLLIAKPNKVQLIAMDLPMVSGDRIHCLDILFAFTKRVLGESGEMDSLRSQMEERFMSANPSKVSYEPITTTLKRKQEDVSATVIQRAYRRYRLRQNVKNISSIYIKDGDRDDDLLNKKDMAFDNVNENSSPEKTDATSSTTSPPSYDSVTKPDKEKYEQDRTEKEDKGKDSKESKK
Sequence of hNav1.5 (Q14524 whole entry, looked up): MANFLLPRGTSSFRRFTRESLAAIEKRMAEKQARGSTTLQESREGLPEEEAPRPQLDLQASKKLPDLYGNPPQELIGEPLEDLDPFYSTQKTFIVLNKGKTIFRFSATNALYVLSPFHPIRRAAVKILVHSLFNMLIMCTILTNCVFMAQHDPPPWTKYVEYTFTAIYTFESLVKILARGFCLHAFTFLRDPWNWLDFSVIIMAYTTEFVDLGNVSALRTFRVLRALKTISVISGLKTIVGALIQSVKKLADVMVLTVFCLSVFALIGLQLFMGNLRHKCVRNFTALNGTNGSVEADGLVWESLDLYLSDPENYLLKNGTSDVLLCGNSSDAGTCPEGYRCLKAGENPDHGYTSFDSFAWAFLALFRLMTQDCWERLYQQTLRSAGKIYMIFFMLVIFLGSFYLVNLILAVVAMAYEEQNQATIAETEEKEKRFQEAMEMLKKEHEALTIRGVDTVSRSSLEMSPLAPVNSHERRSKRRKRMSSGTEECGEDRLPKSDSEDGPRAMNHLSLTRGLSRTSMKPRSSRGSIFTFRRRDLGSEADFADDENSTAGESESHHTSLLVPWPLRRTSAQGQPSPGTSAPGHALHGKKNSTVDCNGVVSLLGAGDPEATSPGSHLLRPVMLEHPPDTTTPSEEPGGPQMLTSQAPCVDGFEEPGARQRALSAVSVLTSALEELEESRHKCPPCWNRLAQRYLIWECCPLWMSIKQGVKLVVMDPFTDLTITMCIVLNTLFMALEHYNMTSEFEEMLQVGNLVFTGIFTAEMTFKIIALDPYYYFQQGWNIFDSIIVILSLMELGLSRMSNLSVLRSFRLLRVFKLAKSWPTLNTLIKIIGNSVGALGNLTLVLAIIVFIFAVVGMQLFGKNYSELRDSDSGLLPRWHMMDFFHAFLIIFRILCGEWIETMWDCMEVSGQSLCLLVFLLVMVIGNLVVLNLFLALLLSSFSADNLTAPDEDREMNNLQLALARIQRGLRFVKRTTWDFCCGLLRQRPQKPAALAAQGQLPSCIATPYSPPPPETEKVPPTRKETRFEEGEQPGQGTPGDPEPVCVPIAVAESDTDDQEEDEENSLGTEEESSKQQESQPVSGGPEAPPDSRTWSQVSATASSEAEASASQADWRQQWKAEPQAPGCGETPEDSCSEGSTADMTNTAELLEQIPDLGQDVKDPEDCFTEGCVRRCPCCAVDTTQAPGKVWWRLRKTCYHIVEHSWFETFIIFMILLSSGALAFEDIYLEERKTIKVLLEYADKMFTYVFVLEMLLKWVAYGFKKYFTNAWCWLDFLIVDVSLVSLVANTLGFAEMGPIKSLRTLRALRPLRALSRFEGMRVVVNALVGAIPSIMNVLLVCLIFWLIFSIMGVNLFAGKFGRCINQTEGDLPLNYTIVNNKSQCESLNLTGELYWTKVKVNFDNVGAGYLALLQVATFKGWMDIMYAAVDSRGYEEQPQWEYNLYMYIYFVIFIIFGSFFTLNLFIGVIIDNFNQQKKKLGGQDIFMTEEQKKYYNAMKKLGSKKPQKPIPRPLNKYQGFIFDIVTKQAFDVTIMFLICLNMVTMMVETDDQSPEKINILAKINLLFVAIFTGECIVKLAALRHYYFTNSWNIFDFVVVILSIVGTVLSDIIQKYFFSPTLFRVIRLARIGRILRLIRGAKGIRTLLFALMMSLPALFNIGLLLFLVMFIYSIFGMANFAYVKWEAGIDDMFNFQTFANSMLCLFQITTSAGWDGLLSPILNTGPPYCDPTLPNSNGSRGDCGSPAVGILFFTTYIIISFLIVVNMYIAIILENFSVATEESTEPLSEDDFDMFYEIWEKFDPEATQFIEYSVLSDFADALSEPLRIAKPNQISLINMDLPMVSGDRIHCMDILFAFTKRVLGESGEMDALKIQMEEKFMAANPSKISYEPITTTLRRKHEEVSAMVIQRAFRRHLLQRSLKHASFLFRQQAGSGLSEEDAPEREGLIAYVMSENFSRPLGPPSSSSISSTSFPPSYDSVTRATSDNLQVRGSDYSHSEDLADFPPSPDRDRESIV

As to `CSCC[C@@H]1NC(=O)[C@H](C(C)C)NC(=O)CNC(=O)[C@H](CC(C)C)NC(=O)[C@@H](NC(=O)[C@@H](N)CC(=O)O)CSSC[C@@H]2NC(=O)[C@@H]3CSSC[C@@H](C(=O)N[C@@H](CCCCN)C(=O)N[C@@H](Cc4ccc(O)cc4)C(=O)N[C@H](C(=O)N[C@@H](Cc4ccccc4)C(N)=O)C(C)C)NC(=O)[C@H](Cc4c[nH]c5ccccc45)NC(=O)[C@H](CCCCN)NC(=O)[C@H](Cc4c[nH]cn4)NC(=O)[C@H]([C@@H](C)O)NC(=O)[C@H](CCCNC(=N)N)NC(=O)[C@H](CO)NC(=O)[C@H](CSSC[C@H](NC(=O)[C@H](CCCCN)NC(=O)[C@H](CCCNC(=N)N)NC1=O)C(=O)N[C@@H](CC(=O)O)C(=O)N1CCC[C@H]1C(=O)N[C@@H](CC(=O)O)C(=O)N[C@@H](CC(N)=O)C(=O)N[C@@H](CC(=O)O)C(=O)N[C@@H](CCCCN)C(=O)N3)NC(=O)[C@H](C(C)C)NC(=O)[C@H](CC(C)C)NC(=O)[C@H](CC(N)=O)NC(=O)[C@@H]1CCCN1C(=O)[C@H](CCCNC(=N)N)NC2=O` [[Val5;Asp10]GpTx-1(1-34)] (H-DCLGVMRKCDPDNDKCCRPNLVCSRTHKWCKYVF-NH2; disulfide 2-17, 9-23, 16-30), the IC50 in assay [1] was greater than 10000 nM; in assay [2], 174 nM.
On the same counts, the results for `CC[C@H](C)[C@@H]1NC(=O)[C@@H]2CSSC[C@@H]3NC(=O)[C@H](C(C)C)NC(=O)[C@H](CC(C)C)NC(=O)[C@H](CC(N)=O)NC(=O)[C@@H]4CCCN4C(=O)[C@H](CCCNC(=N)N)NC(=O)[C@H](CSSC[C@H](NC(=O)[C@@H](N)CC(=O)O)C(=O)N[C@@H](CC(C)C)C(=O)NCC(=O)N[C@@H](C(C)C)C(=O)N[C@@H](CCSC)C(=O)N[C@@H](CCCNC(=N)N)C(=O)N[C@@H](CCCCN)C(=O)N2)NC(=O)[C@H](CSSC[C@@H](C(=O)N[C@@H](CCCCN)C(=O)N[C@@H](Cc2ccc(O)cc2)C(=O)N[C@H](C(=O)N[C@@H](Cc2ccccc2)C(N)=O)C(C)C)NC(=O)[C@H](Cc2c[nH]c4ccccc24)NC(=O)[C@H](CCCCN)NC(=O)[C@H](Cc2c[nH]cn2)NC(=O)[C@H]([C@@H](C)O)NC(=O)[C@H](CCCNC(N)=O)NC(=O)[C@H](CO)NC3=O)NC(=O)[C@H](CCCCN)NC(=O)[C@H](CC(=O)O)NC(=O)[C@H](CC(N)=O)NC(=O)[C@H](CC(=O)O)NC(=O)[C@@H]2CCCN2C1=O` [[Val5;Cit25]GpTx-1(1-34)] (H-DCLGVMRKCIPDNDKCCRPNLVCS[Cit]THKWCKYVF-NH2; disulfide 2-17, 9-23, 16-30) are greater than 10000 nM and 28 nM.
The like results for `CC[C@H](C)[C@@H]1NC(=O)[C@@H]2CSSC[C@@H]3NC(=O)[C@H](C(C)C)NC(=O)[C@H](CC(C)C)NC(=O)[C@H](CC(N)=O)NC(=O)[C@@H]4CCCN4C(=O)[C@H](CCCNC(=N)N)NC(=O)[C@H](CSSC[C@H](NC(=O)[C@@H](N)CC(=O)O)C(=O)N[C@@H](CC(C)C)C(=O)NCC(=O)N[C@@H](C(C)C)C(=O)N[C@@H](CCSC)C(=O)N[C@@H](CCCNC(=N)N)C(=O)N[C@@H](CCCCN)C(=O)N2)NC(=O)[C@H](CSSC[C@@H](C(=O)N[C@@H](CCCCN)C(=O)N[C@@H](Cc2ccc(O)cc2)C(=O)N[C@H](C(=O)N[C@@H](Cc2ccccc2)C(N)=O)C(C)C)NC(=O)[C@H](Cc2c[nH]c4ccccc24)NC(=O)[C@H](CCCCN)NC(=O)[C@H](Cc2c[nH]cn2)NC(=O)[C@H]([C@@H](C)O)NC(=O)[C@H](CCCNC(=N)N)NC(=O)[C@H](CO)NC3=O)NC(=O)[C@H](CCCCN)NC(=O)[C@H](CC(=O)O)NC(=O)[C@H](CC(N)=O)NC(=O)[C@H](CCC(=O)O)NC(=O)[C@@H]2CCCN2C1=O` [[Val5;Glu12]GpTx-1(1-34)] (H-DCLGVMRKCIPENDKCCRPNLVCSRTHKWCKYVF-NH2; disulfide 2-17, 9-23, 16-30) were, in that order, greater than 10000 nM and 74 nM.
On the same counts, the results for `CC[C@H](C)[C@@H]1NC(=O)[C@@H]2CSSC[C@@H]3NC(=O)[C@H](C(C)C)NC(=O)[C@H](CC(C)C)NC(=O)[C@H](CC(N)=O)NC(=O)[C@@H]4CCCN4C(=O)[C@H](CCCNC(=N)N)NC(=O)[C@H](CSSC[C@H](NC(=O)[C@@H](N)CC(=O)O)C(=O)N[C@@H](CC(C)C)C(=O)NCC(=O)N[C@@H](C(C)C)C(=O)N[C@@H](CCSC)C(=O)N[C@@H](CCCNC(=N)N)C(=O)N[C@@H](CCCCN)C(=O)N2)NC(=O)[C@H](CSSC[C@@H](C(=O)N[C@@H](CCCCN)C(=O)N[C@@H](Cc2ccc(O)cc2)C(=O)N[C@H](C(=O)N[C@@H](Cc2ccccc2)C(N)=O)C(C)C)NC(=O)[C@H](Cc2c[nH]c4ccccc24)NC(=O)[C@H](CCC(=O)O)NC(=O)[C@H](Cc2c[nH]cn2)NC(=O)[C@H]([C@@H](C)O)NC(=O)[C@H](CCCNC(=N)N)NC(=O)[C@H](CO)NC3=O)NC(=O)[C@H](CCCCN)NC(=O)[C@H](CC(=O)O)NC(=O)[C@H](CC(N)=O)NC(=O)[C@H](CC(=O)O)NC(=O)[C@@H]2CCCN2C1=O` [[Val5;Glu28]GpTx-1(1-34)] (H-DCLGVMRKCIPDNDKCCRPNLVCSRTHEWCKYVF-NH2; disulfide 2-17, 9-23, 16-30) are greater than 10000 nM and 29 nM.
Regarding `CC[C@H](C)[C@@H]1NC(=O)[C@@H]2CSSC[C@@H]3NC(=O)[C@H](C(C)C)NC(=O)[C@H](CC(C)C)NC(=O)[C@H](CC(N)=O)NC(=O)[C@@H]4CCCN4C(=O)[C@H](CCCNC(=N)N)NC(=O)[C@H](CSSC[C@H](NC(=O)[C@@H](N)CC(=O)O)C(=O)N[C@@H](CC(C)C)C(=O)NCC(=O)N[C@@H](C(C)C)C(=O)N[C@@H](CC(C)C)C(=O)N[C@@H](CCCNC(=N)N)C(=O)N[C@@H](CCCCN)C(=O)N2)NC(=O)[C@H](CSSC[C@@H](C(=O)N[C@@H](CCCCN)C(=O)N[C@@H](Cc2ccc(O)cc2)C(=O)N[C@H](C(=O)N[C@@H](Cc2ccccc2)C(N)=O)C(C)C)NC(=O)[C@H](Cc2c[nH]c4ccccc24)NC(=O)[C@H](CCC(=O)O)NC(=O)[C@H](Cc2c[nH]cn2)NC(=O)[C@H]([C@@H](C)O)NC(=O)[C@H](CCCNC(=N)N)NC(=O)[C@H](CO)NC3=O)NC(=O)[C@H](CCCCN)NC(=O)[C@H](CC(=O)O)NC(=O)[C@H](CC(N)=O)NC(=O)[C@H](CC(=O)O)NC(=O)[C@@H]2CCCN2C1=O` [[Val5;Leu6;Glu28]GpTx-1(1-34)] (H-DCLGVLRKCIPDNDKCCRPNLVCSRTHEWCKYVF-NH2; disulfide 2-17, 9-23, 16-30), the results for the IC50 in assay [1] and in assay [2] were greater than 10000 nM and 86 nM, respectively.
On the same counts, the results for `CC[C@H](C)[C@@H]1NC(=O)[C@@H]2CSSC[C@@H]3NC(=O)[C@H](C(C)C)NC(=O)[C@H](CC(C)C)NC(=O)[C@H](CC(N)=O)NC(=O)[C@@H]4CCCN4C(=O)[C@H](CCCNC(=N)N)NC(=O)[C@H](CSSC[C@H](NC(=O)[C@@H](N)CC(=O)O)C(=O)N[C@@H](CC(C)C)C(=O)NCC(=O)N[C@@H](C(C)C)C(=O)N[C@@H](CC(C)C)C(=O)N[C@@H](CCCNC(=N)N)C(=O)N[C@@H](CCCCN)C(=O)N2)NC(=O)[C@H](CSSC[C@@H](C(=O)N[C@@H](CCCCN)C(=O)N[C@@H](Cc2ccc(O)cc2)C(=O)N[C@H](C(=O)N[C@@H](Cc2ccccc2)C(N)=O)C(C)C)NC(=O)[C@H](Cc2c[nH]c4ccccc24)NC(=O)[C@H](CCCCN)NC(=O)[C@H](Cc2c[nH]cn2)NC(=O)[C@H]([C@@H](C)O)NC(=O)[C@H](CCCNC(=N)N)NC(=O)[C@H](CO)NC3=O)NC(=O)[C@H](CCCCN)NC(=O)[C@H](CC(=O)O)NC(=O)[C@H](CC(N)=O)NC(=O)[C@H](CC(=O)O)NC(=O)[C@@H]2CCCN2C1=O` [[Val5;Leu6]GpTx-1(1-34)] (H-DCLGVLRKCIPDNDKCCRPNLVCSRTHKWCKYVF-NH2; disulfide 2-17, 9-23, 16-30) are greater than 10000 nM and 200 nM.
